# Reference: ChEMBL document CHEMBL4602695, “Discovery and SARs of 5-Chloro-N4-phenyl-N2-(pyridin-2-yl)pyrimidine-2,4-diamine Derivatives as Oral Available and Dual CDK 6 and 9 Inhibitors with Potent Antitumor Activity” (J Med Chem, 2020)
# Calls of active or inactive are those of the source. The rule behind the calls is not given here.
# Columns and labels:
# [1] = tested on: Jurkat; assay: Antiproliferative activity against human Jurkat cells assessed as inhibition of cell proliferation measured after 48 hrs by CCK8 assay; assay type: functional, cell-based
# [2] = tested on: MDA-MB-231; assay: Antiproliferative activity against human MDA-MB-231 cells assessed as inhibition of cell proliferation measured after 48 hrs by CCK8 assay; assay type: functional, cell-based; details: MDA-MB-231, 48 h
# [3] = tested on: MDA-MB-231; assay: Antitumor activity against human MDA-MB-231 cells xenografted in BALB/c nu/nu mouse assessed as tumor growth inhibition at 45 mg/kg, po administered once daily for 3 weeks and measured at 3 days interval during compound dosing; assay type: functional, organism-based
# [4] = tested on: MCF7; assay: Antiproliferative activity against human MCF7 cells assessed as inhibition of cell proliferation measured after 48 hrs by CCK8 assay; assay type: functional, cell-based; details: MCF7, 48 h
# [5] = target: CDK9/Cyclin K (Homo sapiens) (UniProt P50750+O75909); details: Sf9
# [6] = tested on: MDA-MB-231; assay: Induction of apoptosis in human MDA-MB-231 cells assessed as viable cells at 20 uM measured after 48 hrs by Annexin V-FITC/propidium iodide staining based flow cytometry (95.8%); assay type: functional; details: MDA-MB-231, 48 h, read-out: Activity
# [7] = tested on: MDA-MB-231; assay: Induction of apoptosis in human MDA-MB-231 cells assessed as necrotic cells at 20 uM measured after 48 hrs by Annexin V-FITC/propidium iodide staining based flow cytometry (0.498%); assay type: functional
# [8] = tested on: MDA-MB-231; assay: Cell cycle arrest in human MDA-MB-231 cells assessed as accumulation at S phase at 20 uM measured after 48 hrs by propidium iodide staining based flow cytometry (reference value: 26.45%); assay type: functional
# [9] = Cytotoxicity against human L02 cells assessed as inhibition of cell proliferation measured after 48 hrs by CCK8 assay; assay type: cell-based
# [10] = tested on: MDA-MB-231; assay: Cell cycle arrest in human MDA-MB-231 cells assessed as accumulation at G2/M phase at 20 uM measured after 48 hrs by propidium iodide staining based flow cytometry (reference value: 15.9%); assay type: functional
# [11] = tested on: MDA-MB-231; assay: Induction of apoptosis in human MDA-MB-231 cells assessed as early apoptotic cells at 20 uM measured after 48 hrs by Annexin V-FITC/propidium iodide staining based flow cytometry (0.877%); assay type: functional
# [12] = tested on: MDA-MB-231; assay: Induction of apoptosis in human MDA-MB-231 cells assessed as late apoptotic cells at 20 uM measured after 48 hrs by Annexin V-FITC/propidium iodide staining based flow cytometry (2.78%); assay type: functional
# [13] = tested on: MDA-MB-231; assay: Cell cycle arrest in human MDA-MB-231 cells assessed as accumulation at G0/G1 phase at 20 uM measured after 48 hrs by propidium iodide staining based flow cytometry (reference value: 57.65%); assay type: functional
# [14] = Thermodynamic equilibrium solubility in normal saline by HPLC-based shake flask method; assay type: physicochemical; details: read-out: Therm_solubility
# [15] = Thermodynamic equilibrium solubility in water by HPLC-based shake flask method; assay type: physicochemical; details: read-out: Therm_solubility
# [16] = target: CDK3/Cyclin E (Homo sapiens) (UniProt P24864+Q00526); details: Sf9, 1 uM
# CDK3/Cyclin E (Homo sapiens), sequence (P24864 whole entry, looked up): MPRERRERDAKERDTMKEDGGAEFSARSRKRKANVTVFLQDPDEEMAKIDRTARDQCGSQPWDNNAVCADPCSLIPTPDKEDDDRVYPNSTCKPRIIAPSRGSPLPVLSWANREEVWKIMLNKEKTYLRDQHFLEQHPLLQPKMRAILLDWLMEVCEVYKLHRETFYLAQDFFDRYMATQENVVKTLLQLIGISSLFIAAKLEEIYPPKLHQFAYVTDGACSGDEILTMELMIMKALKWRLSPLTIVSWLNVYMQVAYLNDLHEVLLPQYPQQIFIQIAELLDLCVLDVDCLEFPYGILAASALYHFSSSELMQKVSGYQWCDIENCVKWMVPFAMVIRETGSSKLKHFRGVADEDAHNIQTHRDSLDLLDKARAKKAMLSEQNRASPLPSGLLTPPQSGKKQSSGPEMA
# CDK3/Cyclin E (Homo sapiens), sequence (Q00526 whole entry, looked up): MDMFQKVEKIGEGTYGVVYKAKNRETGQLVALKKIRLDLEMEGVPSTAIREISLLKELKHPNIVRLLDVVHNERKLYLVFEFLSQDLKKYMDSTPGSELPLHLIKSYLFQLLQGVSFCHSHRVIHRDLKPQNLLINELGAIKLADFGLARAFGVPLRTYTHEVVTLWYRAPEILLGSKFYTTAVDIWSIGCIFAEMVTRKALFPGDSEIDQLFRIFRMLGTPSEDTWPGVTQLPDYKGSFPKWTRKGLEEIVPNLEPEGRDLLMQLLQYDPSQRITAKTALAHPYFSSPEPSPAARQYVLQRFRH
# [17] = tested on: MDA-MB-231; assay: Antitumor activity against human MDA-MB-231 cells xenografted in po dosed BALB/c nu/nu mouse assessed as tumor growth inhibition administered once daily for 3 weeks and measured at 3 days interval during compound dosing; assay type: functional, organism-based
# [18] = target: Cyclin-dependent kinase 6 (Homo sapiens) (UniProt Q00534); assay: Inhibition of CDK6 in human MDA-MB-231 cells assessed as down regulation of E2F1 expression at 4 to 12 uM measured after 48 hrs by Western blot analysis; assay type: cell-based
# Cyclin-dependent kinase 6 (Homo sapiens), sequence (Q00534 whole entry): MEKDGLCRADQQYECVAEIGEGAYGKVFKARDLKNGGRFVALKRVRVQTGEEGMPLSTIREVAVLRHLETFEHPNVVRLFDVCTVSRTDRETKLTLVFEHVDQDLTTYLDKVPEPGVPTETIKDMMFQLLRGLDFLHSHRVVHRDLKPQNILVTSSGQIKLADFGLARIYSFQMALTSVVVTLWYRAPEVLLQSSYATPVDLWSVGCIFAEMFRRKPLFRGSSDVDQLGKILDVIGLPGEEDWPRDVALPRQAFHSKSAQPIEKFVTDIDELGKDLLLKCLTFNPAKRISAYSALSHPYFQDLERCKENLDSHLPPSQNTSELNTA
# [19] = tested on: MDA-MB-231; assay: Effect on CDK9 expression in human MDA-MB-231 cells at 4 to 12 uM measured after 48 hrs by Western blot analysis; assay type: functional, cell-based
# [20] = tested on: MDA-MB-231; assay: Induction of intracellular reactive oxygen species production in human MDA-MB-231 cells measured after 48 hrs by DCFH-DA probe based flow cytometry; assay type: functional, cell-based
# [21] = tested on: MDA-MB-231; assay: Induction of apoptosis in human MDA-MB-231 cells xenografted in BALB/c nu/nu mouse assessed as increase in cytoplasm shrinkage at 22.5 to 90 mg/kg, po administered once daily for 3 weeks measured post-last dose by H and E staining based histopathological analysis; assay type: functional, organism-based
# [22] = target: CDK6/cyclin D3 (Homo sapiens) (UniProt P30281+Q00534); assay: Binding affinity to recombinant His-tagged CDK6/cyclin D3 (unknown origin) expressed in HEK293T cells assessed as thermal stabilization of protein at 10 uM measured for 3 mins at 57 degC by CETSA; assay type: cell-based; details: HEK-293T
# [23] = tested on: MDA-MB-231; assay: Induction of apoptosis in human MDA-MB-231 cells xenografted in BALB/c nu/nu mouse assessed as increase in intracellular space at 22.5 to 90 mg/kg, po administered once daily for 3 weeks measured post-last dose by H and E staining based histopathological analysis; assay type: functional, organism-based
# [24] = target: Cyclin-C/Cyclin-dependent kinase 19 (Homo sapiens) (UniProt Q9BWU1+P24863); assay: Inhibition of recombinant human GST-tagged/His-tagged CDK11 (1 to 502 residues)/cyclinC (1 to 283 residues) expressed in insect cells at 1 uM using PAK1 (148 to 210 residues) as substrate measured after 10 to 60 mins by ADP-glo assay relative to control
# [25] = target: Cyclin-dependent kinase 9 (Homo sapiens) (UniProt P50750); assay: Inhibition of CDK9 in human MDA-MB-231 cells assessed as reduction in Mcl-1 mRNA level at 4 to 12 uM by trizol reagent based qRT-PCR analysis; assay type: cell-based
# Cyclin-dependent kinase 9 (Homo sapiens), sequence (P50750 whole entry): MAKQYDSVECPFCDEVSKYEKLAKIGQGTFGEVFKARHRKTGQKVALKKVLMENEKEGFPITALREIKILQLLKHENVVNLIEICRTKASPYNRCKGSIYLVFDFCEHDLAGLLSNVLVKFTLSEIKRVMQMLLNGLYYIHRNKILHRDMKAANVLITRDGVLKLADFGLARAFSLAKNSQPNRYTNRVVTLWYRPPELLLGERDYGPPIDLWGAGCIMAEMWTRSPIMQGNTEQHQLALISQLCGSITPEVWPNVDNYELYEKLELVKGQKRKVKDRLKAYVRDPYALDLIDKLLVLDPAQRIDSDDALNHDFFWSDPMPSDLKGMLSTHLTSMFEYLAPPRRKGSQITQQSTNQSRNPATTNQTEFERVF
# [26] = target: Cyclin-dependent kinase 9 (Homo sapiens) (UniProt P50750); assay: Inhibition of CDK9 in human MDA-MB-231 cells assessed as down regulation of p-Pol II CTD S2 expression at 4 to 12 uM measured after 48 hrs by Western blot analysis; assay type: cell-based
# [27] = tested on: MDA-MB-231; assay: Induction of apoptosis in human MDA-MB-231 cells xenografted in BALB/c nu/nu mouse assessed as increase in nucleoplasm staining at 22.5 to 90 mg/kg, po administered once daily for 3 weeks measured post-last dose by H and E staining based histopathological analysis; assay type: functional, organism-based
# [28] = target: Cyclin-dependent kinase 9 (Homo sapiens) (UniProt P50750); assay: Inhibition of CDK9 in human MDA-MB-231 cells assessed as reduction in c-Myc mRNA level at 4 to 12 uM by trizol reagent based qRT-PCR analysis; assay type: cell-based
# [29] = target: Cyclin-dependent kinase 6 (Homo sapiens) (UniProt Q00534); assay: Inhibition of CDK6 in human MDA-MB-231 cells assessed as down regulation of p-Rb expression at 4 to 12 uM measured after 48 hrs by Western blot analysis; assay type: cell-based
# [30] = target: Cyclin-dependent kinase 9 (Homo sapiens) (UniProt P50750); assay: Inhibition of CDK9 in human MDA-MB-231 cells assessed as down regulation of cyclin T1 expression at 4 to 12 uM measured after 48 hrs by Western blot analysis; assay type: cell-based
# [31] = target: CDK9/cyclin T1 (Homo sapiens) (UniProt O60563+P50750); assay: Binding affinity to recombinant His-tagged CDK9/cyclin T1 (unknown origin) expressed in HEK293T cells assessed as thermal stabilization of protein at 10 uM measured for 3 mins at 57 degC by CETSA; assay type: cell-based; details: HEK-293T
# [32] = tested on: MDA-MB-231; assay: Effect on CDK6 expression in human MDA-MB-231 cells at 4 to 12 uM measured after 48 hrs by Western blot analysis; assay type: functional, cell-based
# [33] = organism: Homo sapiens
# [34] = target: CDK6/cyclin D3 (Homo sapiens, UniProt Q00534); design: species or system Sf9
# CDK6/cyclin D3, sequence (P30281 whole entry): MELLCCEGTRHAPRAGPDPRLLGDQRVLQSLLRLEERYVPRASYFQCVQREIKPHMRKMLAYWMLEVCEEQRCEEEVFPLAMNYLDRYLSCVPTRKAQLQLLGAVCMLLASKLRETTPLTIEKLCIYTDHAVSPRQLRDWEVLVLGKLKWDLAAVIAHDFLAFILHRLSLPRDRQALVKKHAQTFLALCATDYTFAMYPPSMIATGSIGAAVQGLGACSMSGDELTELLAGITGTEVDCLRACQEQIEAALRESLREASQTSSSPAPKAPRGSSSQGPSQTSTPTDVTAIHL
# CDK6/cyclin D3, sequence (Q00534 whole entry): as the sequence (Q00534 whole entry) above
# [35] = target: CDK9/Cyclin K (Homo sapiens, UniProt P50750); assay: biochemical
# CDK9/Cyclin K, sequence (P50750 whole entry): as the sequence (P50750 whole entry) above
# CDK9/Cyclin K, sequence (O75909 whole entry, further chain): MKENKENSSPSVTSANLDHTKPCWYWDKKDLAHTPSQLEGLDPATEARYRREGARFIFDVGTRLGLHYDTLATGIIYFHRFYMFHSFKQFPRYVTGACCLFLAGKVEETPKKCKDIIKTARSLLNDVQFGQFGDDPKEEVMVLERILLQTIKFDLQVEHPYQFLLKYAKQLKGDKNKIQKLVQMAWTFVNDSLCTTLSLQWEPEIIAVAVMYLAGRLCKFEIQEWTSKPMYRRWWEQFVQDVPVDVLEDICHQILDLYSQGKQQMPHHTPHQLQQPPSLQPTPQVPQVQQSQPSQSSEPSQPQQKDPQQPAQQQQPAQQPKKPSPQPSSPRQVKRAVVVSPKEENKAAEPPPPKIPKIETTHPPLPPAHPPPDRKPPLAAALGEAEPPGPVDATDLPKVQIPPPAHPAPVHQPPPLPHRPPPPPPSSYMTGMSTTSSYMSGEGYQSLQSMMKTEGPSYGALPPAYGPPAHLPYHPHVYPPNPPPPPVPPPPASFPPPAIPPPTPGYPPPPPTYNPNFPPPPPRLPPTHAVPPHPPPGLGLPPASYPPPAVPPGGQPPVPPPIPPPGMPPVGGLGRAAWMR
# [36] = target: CDK2/Cyclin A2 (Homo sapiens, UniProt P24941); design: species or system Sf9
structure (smiles),measurement,setting,value
CCN1CCN(Cc2ccc(Nc3ncc(F)c(-c4cc(F)c5nc(C)n(C(C)C)c5c4)n3)nc2)CC1 [ABEMACICLIB],GI50,[1],4.63 µM
same,GI50,[2],3.45 µM
same,TGI,[3],Active
same,GI50,[4],4.01 µM
CN1CCN(c2ccc(Nc3ncc(Cl)c(Nc4ccc(F)c(C(F)(F)F)c4)n3)nc2)CC1,inhibition,[5],inactive
CN1CCN(c2ccc(Nc3ncc(Cl)c(Nc4cccc(OC(F)(F)F)c4)n3)nc2)CC1,inhibition,[5],inactive
CN1CCN(c2ccc(Nc3ncc(Cl)c(Nc4ccc(OC(F)(F)F)cc4)n3)nc2)CC1,inhibition,[5],inactive
CC(=O)c1c(C)c2cnc(Nc3ccc(N4CCNCC4)cn3)nc2n(C2CCCC2)c1=O [PALBOCICLIB],GI50,[1],> 100 µM
same,viability at 20 µM,[6],89%
same,Activity,[7],2.32%
same,GI50,[2],> 100 µM
same,Activity,[8],4.98%
same,GI50 at 48 h,[9],> 100 µM
same,Activity,[10],3.12%
same,Activity,[11],3.43%
same,Activity,[12],5.26%
same,GI50,[4],> 100 µM
same,Activity,[13],91.91%
CC(=O)Nc1cccc(Nc2nc(Nc3ccc(N4CCN(C)CC4)cn3)ncc2Cl)c1.Cl,solubility thermodynamic,[14],3960 µg/mL
same,solubility thermodynamic,[15],7700 µg/mL
CN1CCN(c2ccc(Nc3ncc(Cl)c(Nc4ccc(C(F)(F)F)cc4)n3)nc2)CC1,inhibition,[5],inactive
CC(=O)Nc1cccc(Nc2nc(Nc3ccc(N4CCN(C)CC4)cn3)ncc2Cl)c1,inhibition,[16],< 6.6%
same,TGI,[17],Dose-dependent effect
same,inhibition,[18],Active
same,Activity,[19],inactive
same,Activity,[20],Dose-dependent effect
same,Activity,[21],Active
same,Activity,[22],Active
same,Activity,[23],Active
same,inhibition,[24],< 6.6%
same,inhibition,[25],Active
same,inhibition,[26],Active
same,Activity,[27],Active
same,inhibition,[28],Active
same,inhibition,[29],Active
same,inhibition,[30],Active
same,Activity,[31],Active
same,Activity,[32],inactive
Cc1ccccc1Nc1nc(Nc2ccc(N3CCN(C)CC3)cn2)ncc1Cl,Ratio IC50,[33],10
same,GI50,[1],8.08 µM
same,GI50,[2],7.47 µM
same,IC50,[34],0.0157 to 0.016 µM
same,IC50,[35],0.152 µM
same,GI50 at 48 h,[9],5.98 µM
same,IC50,[36],> 10 µM
same,GI50,[4],5.21 µM
CN1CCN(c2ccc(Nc3ncc(Cl)c(Nc4cccc(F)c4)n3)nc2)CC1,inhibition,[5],inactive
